{"source": "patent US10463671B2", "about": "“Combination therapy for treating cancer” (Epizyme, Inc., priority 2013, dated 2019)", "test_system": "glucocorticoid signaling genes in RL cells", "assay": "RT2 Glucocorticoid Signaling PCR array", "assay_type": "cell-based", "conditions": "4 days, 1 μM Cpd44, Pred 10-fold below 4-day IC50", "method": "Gene expression was normalized to array's B2M and fold change compared to DMSO was calculated using the ΔΔCt method."}
{"smiles": "CCN(c1cc(-c2ccc(CN3CCOCC3)cc2)cc(C(=O)NCc2c(C)cc(C)[nH]c2=O)c1C)C1CCOCC1", "note": "[Compound 44]", "values": [{"measurement": "ACTB Ct value", "result": 15.664}, {"measurement": "ACTB ΔCT (B2M)", "result": "−3.694"}, {"measurement": "ADARB1 Ct value", "result": 26.650}, {"measurement": "ADARB1 ΔCT (B2M)", "result": 7.292}, {"measurement": "AFF1 Ct value", "result": 26.820}, {"measurement": "AFF1 ΔCT (B2M)", "result": 7.462}, {"measurement": "AK2 Ct value", "result": 20.270}, {"measurement": "AK2 ΔCT (B2M)", "result": 0.912}, {"measurement": "AMPD3 Ct value", "result": 27.191}, {"measurement": "AMPD3 ΔCT (B2M)", "result": 7.833}, {"measurement": "ANGPTL4 Ct value", "result": 29.820}, {"measurement": "ANGPTL4 ΔCT (B2M)", "result": 10.462}, {"measurement": "ANXA4 Ct value", "result": 24.395}, {"measurement": "ANXA4 ΔCT (B2M)", "result": 5.037}, {"measurement": "ARID5B Ct value", "result": 27.333}, {"measurement": "ARID5B ΔCT (B2M)", "result": 7.975}, {"measurement": "ASPH Ct value", "result": 23.466}, {"measurement": "ASPH ΔCT (B2M)", "result": 4.108}, {"measurement": "ATF4 Ct value", "result": 18.269}, {"measurement": "ATF4 ΔCT (B2M)", "result": "−1.089"}, {"measurement": "B2M Ct value", "result": 19.358}, {"measurement": "B2M ΔCT (B2M)", "result": 0.000}, {"measurement": "BCL6 Ct value", "result": 20.289}, {"measurement": "BCL6 ΔCT (B2M)", "result": 0.931}, {"measurement": "CEBPA Ct value", "result": 36.511}, {"measurement": "CEBPA ΔCT (B2M)", "result": 17.153}, {"measurement": "CEBPB Ct value", "result": 23.765}, {"measurement": "CEBPB ΔCT (B2M)", "result": 4.407}, {"measurement": "COL4A2 Ct value", "result": 31.782}, {"measurement": "COL4A2 ΔCT (B2M)", "result": 12.424}, {"measurement": "CREB1 Ct value", "result": 23.217}, {"measurement": "CREB1 ΔCT (B2M)", "result": 3.859}, {"measurement": "CREB3 Ct value", "result": 24.178}, {"measurement": "CREB3L4 Ct value", "result": 23.500}, {"measurement": "CREB3L4 ΔCT (B2M)", "result": 4.142}, {"measurement": "CREB3 ΔCT (B2M)", "result": 4.820}, {"measurement": "CYB561 Ct value", "result": 38.452}, {"measurement": "CYB561 ΔCT (B2M)", "result": 19.094}, {"measurement": "DDIT4 Ct value", "result": 22.679}, {"measurement": "DDIT4 ΔCT (B2M)", "result": 3.321}, {"measurement": "DUSP1 Ct value", "result": 25.422}, {"measurement": "DUSP1 ΔCT (B2M)", "result": 6.064}, {"measurement": "EDN1 Ct value", "result": 31.815}, {"measurement": "EDN1 ΔCT (B2M)", "result": 12.457}, {"measurement": "EHD3 Ct value", "result": 24.572}, {"measurement": "EHD3 ΔCT (B2M)", "result": 5.214}, {"measurement": "ERRFI1 Ct value", "result": 31.705}, {"measurement": "ERRFI1 ΔCT (B2M)", "result": 12.347}, {"measurement": "FKBP5 Ct value", "result": 21.757}, {"measurement": "FKBP5 ΔCT (B2M)", "result": 2.399}, {"measurement": "FOSL2 Ct value", "result": 30.761}, {"measurement": "FOSL2 ΔCT (B2M)", "result": 11.403}, {"measurement": "GAPDH Ct value", "result": 15.720}, {"measurement": "GAPDH ΔCT (B2M)", "result": "−3.638"}, {"measurement": "GDPD1 Ct value", "result": 27.394}, {"measurement": "GDPD1 ΔCT (B2M)", "result": 8.036}, {"measurement": "GHRHR Ct value", "result": 37.546}, {"measurement": "GHRHR ΔCT (B2M)", "result": 18.188}, {"measurement": "GLUL Ct value", "result": 28.738}, {"measurement": "GLUL ΔCT (B2M)", "result": 9.380}, {"measurement": "GOT1 Ct value", "result": 22.584}, {"measurement": "GOT1 ΔCT (B2M)", "result": 3.226}, {"measurement": "H6PD Ct value", "result": 25.012}, {"measurement": "H6PD ΔCT (B2M)", "result": 5.654}, {"measurement": "HNRPLL Ct value", "result": 22.844}, {"measurement": "HNRPLL ΔCT (B2M)", "result": 3.486}, {"measurement": "HPRT1 Ct value", "result": 22.013}, {"measurement": "HPRT1 ΔCT (B2M)", "result": 2.655}, {"measurement": "IL1RN Ct value", "result": 28.405}, {"measurement": "IL1RN ΔCT (B2M)", "result": 9.047}, {"measurement": "IL6R Ct value", "result": 29.246}, {"measurement": "IL6R ΔCT (B2M)", "result": 9.888}, {"measurement": "IL10 Ct value", "result": 31.498}, {"measurement": "IL10 ΔCT (B2M)", "result": 12.140}, {"measurement": "KLF13 Ct value", "result": 22.854}, {"measurement": "KLF13 ΔCT (B2M)", "result": 3.496}, {"measurement": "MERTK Ct value", "result": 30.691}, {"measurement": "MERTK ΔCT (B2M)", "result": 11.333}, {"measurement": "MT1E Ct value", "result": 34.215}, {"measurement": "MT1E ΔCT (B2M)", "result": 14.857}, {"measurement": "MT2A Ct value", "result": 24.279}, {"measurement": "MT2A ΔCT (B2M)", "result": 4.921}, {"measurement": "NFKBIA Ct value", "result": 23.710}, {"measurement": "NFKBIA ΔCT (B2M)", "result": 4.352}, {"measurement": "NR3C1 Ct value", "result": 22.616}, {"measurement": "NR3C1 ΔCT (B2M)", "result": 3.258}, {"measurement": "PDCD7 Ct value", "result": 24.406}, {"measurement": "PDCD7 ΔCT (B2M)", "result": 5.048}, {"measurement": "PDP1 Ct value", "result": 25.387}, {"measurement": "PDP1 ΔCT (B2M)", "result": 6.029}, {"measurement": "PER1 Ct value", "result": 25.492}, {"measurement": "PER1 ΔCT (B2M)", "result": 6.134}, {"measurement": "PER2 Ct value", "result": 24.378}, {"measurement": "PER2 ΔCT (B2M)", "result": 5.020}, {"measurement": "PIK3R1 Ct value", "result": 23.908}, {"measurement": "PIK3R1 ΔCT (B2M)", "result": 4.550}, {"measurement": "PLEKHF1 Ct value", "result": 30.520}, {"measurement": "PLEKHF1 ΔCT (B2M)", "result": 11.162}, {"measurement": "POU2F1 Ct value", "result": 24.243}, {"measurement": "POU2F1 ΔCT (B2M)", "result": 4.885}, {"measurement": "POU2F2 Ct value", "result": 21.769}, {"measurement": "POU2F2 ΔCT (B2M)", "result": 2.411}, {"measurement": "RASA3 Ct value", "result": 26.279}, {"measurement": "RASA3 ΔCT (B2M)", "result": 6.921}, {"measurement": "RGS2 Ct value", "result": 25.721}, {"measurement": "RGS2 ΔCT (B2M)", "result": 6.363}, {"measurement": "RPLP0 Ct value", "result": 14.837}, {"measurement": "RPLP0 ΔCT (B2M)", "result": "−4.521"}, {"measurement": "SESN1 Ct value", "result": 24.425}, {"measurement": "SESN1 ΔCT (B2M)", "result": 5.067}, {"measurement": "SGK1 Ct value", "result": 26.262}, {"measurement": "SGK1 ΔCT (B2M)", "result": 6.904}, {"measurement": "SLC19A2 Ct value", "result": 25.536}, {"measurement": "SLC19A2 ΔCT (B2M)", "result": 6.178}, {"measurement": "SNTA1 Ct value", "result": 25.554}, {"measurement": "SNTA1 ΔCT (B2M)", "result": 6.196}, {"measurement": "SPHK1 Ct value", "result": 31.119}, {"measurement": "SPHK1 ΔCT (B2M)", "result": 11.761}, {"measurement": "SPSB1 Ct value", "result": 26.285}, {"measurement": "SPSB1 ΔCT (B2M)", "result": 6.927}, {"measurement": "STAT5A Ct value", "result": 22.769}, {"measurement": "STAT5A ΔCT (B2M)", "result": 3.411}, {"measurement": "STAT5B Ct value", "result": 22.683}, {"measurement": "STAT5B ΔCT (B2M)", "result": 3.325}, {"measurement": "TBL1XR1 Ct value", "result": 21.663}, {"measurement": "TBL1XR1 ΔCT (B2M)", "result": 2.305}, {"measurement": "TNF Ct value", "result": 24.712}, {"measurement": "TNF ΔCT (B2M)", "result": 5.354}, {"measurement": "TNFAIP3 Ct value", "result": 26.896}, {"measurement": "TNFAIP3 ΔCT (B2M)", "result": 7.538}, {"measurement": "TSC22D3 Ct value", "result": 23.300}, {"measurement": "TSC22D3 ΔCT (B2M)", "result": 3.942}, {"measurement": "USP2 Ct value", "result": 21.420}, {"measurement": "USP2 ΔCT (B2M)", "result": 2.062}, {"measurement": "USP54 Ct value", "result": 26.364}, {"measurement": "USP54 ΔCT (B2M)", "result": 7.006}, {"measurement": "VDR Ct value", "result": 27.736}, {"measurement": "VDR ΔCT (B2M)", "result": 8.378}, {"measurement": "ZFP36 Ct value", "result": 24.374}, {"measurement": "ZFP36 ΔCT (B2M)", "result": 5.016}, {"measurement": "ZHX3 Ct value", "result": 29.785}, {"measurement": "ZHX3 ΔCT (B2M)", "result": 10.427}, {"measurement": "ZNF281 Ct value", "result": 23.667}, {"measurement": "ZNF281 ΔCT (B2M)", "result": 4.309}, {"measurement": "AFF1 ΔΔCT", "setting": "vs DMSO", "result": "−2.006"}, {"measurement": "ATF4 ΔΔCT", "setting": "vs DMSO", "result": 0.003}, {"measurement": "CEBPB ΔΔCT", "setting": "vs DMSO", "result": "−0.004"}, {"measurement": "CREB3L4 ΔΔCT", "setting": "vs DMSO", "result": "−0.760"}, {"measurement": "HNRPLL ΔΔCT", "setting": "vs DMSO", "result": 0.309}, {"measurement": "LOX ΔΔCT", "setting": "vs DMSO", "result": "−0.580"}, {"measurement": "NFKBIA ΔΔCT", "setting": "vs DMSO", "result": 0.854}, {"measurement": "NR3C1 ΔΔCT", "setting": "vs DMSO", "result": 0.067}, {"measurement": "PDCD7 ΔΔCT", "setting": "vs DMSO", "result": 0.006}, {"measurement": "PLEKHF1 ΔΔCT", "setting": "vs DMSO", "result": 0.050}, {"measurement": "POU2F1 ΔΔCT", "setting": "vs DMSO", "result": "−0.027"}, {"measurement": "POU2F2 ΔΔCT", "setting": "vs DMSO", "result": "−0.584"}, {"measurement": "RASA3 ΔΔCT", "setting": "vs DMSO", "result": "−0.009"}, {"measurement": "SNTA1 ΔΔCT", "setting": "vs DMSO", "result": 0.040}, {"measurement": "STAT5A ΔΔCT", "setting": "vs DMSO", "result": 0.001}, {"measurement": "STAT5B ΔΔCT", "setting": "vs DMSO", "result": "−0.094"}, {"measurement": "ZFP36 ΔΔCT", "setting": "vs DMSO", "result": "−0.036"}, {"measurement": "ZNF281 ΔΔCT", "setting": "vs DMSO", "result": 0.046}]}
